≈ marks a conversion by molar mass, not a printed value.
Structure (SMILES)	solubility (25 °C)	solubility (20 °C)	other results
CCCOCCC	48 mM (≈ 4900 µg/mL)		
CCCCCOC(C)=O		13.2 mM (≈ 1710 µg/mL)	
CCCCCCCCC(=O)O		1.79 mM (≈ 284 µg/mL)	
FC(Cl)(Cl)C(F)(Cl)Cl	0.617 mM (≈ 126 µg/mL)		
CC(C)CC(C)O (stereo not drawn)	161 mM (≈ 16400 µg/mL)		
C=COC(C)=O		232 mM (≈ 20000 µg/mL)	
CC1CCCO1 (stereo not drawn)	1810 mM (≈ 156000 µg/mL)		
CCOCC	815 mM (≈ 60400 µg/mL)		
C[Si](C)(C)C	0.222 mM (≈ 19.6 µg/mL)		
Cc1ccc(Cl)c(Cl)c1			solubility (30 °C): 0.161 mM (≈ 26 µg/mL)
C=C(C)C(=O)O		1030 mM (≈ 89000 µg/mL)	
CCCCC	0.527 mM (≈ 38 µg/mL)		
CCCC(=O)OCC		47.3 mM (≈ 5500 µg/mL)	
CC(=O)OC(C)CC(C)C (stereo not drawn)		9.01 mM (≈ 1300 µg/mL)	
CCC[N+](=O)[O-]	168 mM (≈ 15000 µg/mL)		
CCCCS		6.62 mM (≈ 597 µg/mL)	
CCOC(=O)CC(C)C		18.5 mM (≈ 2410 µg/mL)	
CCCCOCCCC	2.3 mM (≈ 300 µg/mL)		
COC(=O)/C=C\C(=O)OC	555 mM (≈ 80000 µg/mL)		

Structure (SMILES)	solubility (25 °C)	solubility (20 °C)	other results
CCCCCCCCC	0.00172 mM (≈ 0.22 µg/mL)		
CCC(C)C	0.676 mM (≈ 48.8 µg/mL)		
CCCCC(CC)CN (stereo not drawn)		19.3 mM (≈ 2500 µg/mL)	
CCCCOC(=O)/C=C\C(=O)OCCCC	2.19 mM (≈ 500 µg/mL)		
CC(C)CCOCCC(C)C	1.26 mM (≈ 200 µg/mL)		
C=COCCCC		30 mM (≈ 3000 µg/mL)	
N#Cc1ccccc1	19.4 mM (≈ 2000 µg/mL)		
CCCC(C)C	0.172 mM (≈ 14.8 µg/mL)		
CCCCOC(=O)CCCCCCCCC(=O)OCCCC		0.127 mM (≈ 40 µg/mL)	
CCCCC(CC)CCl (stereo not drawn)		0.673 mM (≈ 100 µg/mL)	
CCCCCl	11.9 mM (≈ 1100 µg/mL)		
FC(F)(F)Cl	0.862 mM (≈ 90 µg/mL)		
CCCCCC(C)=O	37.7 mM (≈ 4300 µg/mL)		
CCOC(=O)/C=C\C(=O)OCC			solubility (30 °C): 81.3 mM (≈ 14000 µg/mL)
FC(F)(Cl)C(F)(F)Cl	0.761 mM (≈ 130 µg/mL)		
CC(=O)OCC(COC(C)=O)OC(C)=O	266 mM (≈ 58000 µg/mL)		
C=CC(=O)OC	574 mM (≈ 49400 µg/mL)		
CC[Si](CC)(CC)CC	0.00225 mM (≈ 0.325 µg/mL)		
COC(=O)c1ccccc1		15.4 mM (≈ 2100 µg/mL)	
